Test results: patent US6620801B2, “17β-amino and hydroxylamino-11β-arylsteroids and their derivatives having agonist or antagonist hormonal properties” (Research Triangle Institute, priority 1998, dated 2003)

Key:
[1] = target: T1, human progesterone hormone receptor (Homo sapiens, UniProt P06401); assay: Receptor binding, inhibition of [3H]-R5020 binding in T-47D cytosol; details: cytosol from human T-47D breast cells, 0.4 nM [3H]-R5020, 4 hours at 4° C.; read-out: Relative Binding Affinity hPR IC50
T1 construct: The receptor was obtained in cytosol from human T-47D breast cells and [^3H]-R5020 was used as the radioligand; endogenous in cells; host or cells: human T-47D breast cells (cytosol, 34,000 x g supernatant)
T1 sequence (P06401 1-933): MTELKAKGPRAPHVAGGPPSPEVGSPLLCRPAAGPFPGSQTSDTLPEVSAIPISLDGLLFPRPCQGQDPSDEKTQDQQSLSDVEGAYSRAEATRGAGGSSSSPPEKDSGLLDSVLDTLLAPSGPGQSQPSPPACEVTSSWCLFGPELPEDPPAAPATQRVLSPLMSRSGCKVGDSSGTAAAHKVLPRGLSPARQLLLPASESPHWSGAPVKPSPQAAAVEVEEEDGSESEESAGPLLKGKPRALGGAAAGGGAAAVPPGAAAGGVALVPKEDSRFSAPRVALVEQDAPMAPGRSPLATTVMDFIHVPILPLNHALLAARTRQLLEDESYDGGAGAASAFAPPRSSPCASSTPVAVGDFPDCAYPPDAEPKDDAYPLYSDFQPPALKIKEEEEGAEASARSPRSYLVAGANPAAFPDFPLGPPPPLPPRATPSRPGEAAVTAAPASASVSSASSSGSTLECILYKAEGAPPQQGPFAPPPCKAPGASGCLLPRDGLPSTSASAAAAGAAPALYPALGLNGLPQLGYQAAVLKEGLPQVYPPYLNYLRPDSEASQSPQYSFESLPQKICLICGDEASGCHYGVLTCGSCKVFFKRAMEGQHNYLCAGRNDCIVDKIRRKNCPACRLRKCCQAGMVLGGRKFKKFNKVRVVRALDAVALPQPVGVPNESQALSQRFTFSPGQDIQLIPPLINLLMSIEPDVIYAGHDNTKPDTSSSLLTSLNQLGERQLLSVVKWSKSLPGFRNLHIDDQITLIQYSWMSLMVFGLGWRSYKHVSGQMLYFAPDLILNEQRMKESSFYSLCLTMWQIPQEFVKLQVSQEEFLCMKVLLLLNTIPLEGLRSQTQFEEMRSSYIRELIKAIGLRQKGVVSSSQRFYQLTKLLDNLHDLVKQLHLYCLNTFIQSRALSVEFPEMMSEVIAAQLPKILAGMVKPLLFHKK
Procedure: The receptor was obtained in cytosol from human T-47D breast cells and [^3H]-R5020 was used as the radioligand. T47D cells (1 billion/ml) were homogenized in TEDG buffer (10 mM Tris, 1.5 mM EDTA, 1 mM dithiothreitol, 1 mM sodium molybdate, and 10% glycerol) using a Dounce pestle A, and the homogenate was centrifuged at 34,000×g for 1 hour. The supernatant was stored at −80° C. An aliquot of receptor preparation was combined with test compound, 0.4 nM [^3H]-R5020, and TEDG buffer to a final volume of 150 μL and incubated for 4 hours at 4° C. in microtiter plates. At the end of incubation 40 μL 40% polyethylene glycol and 15 μL 1% human gamma globulin was added to the incubate and the contents of each well were harvested onto double thick B filter mats (Wallac LKB) using a TomTec harvester. A film of Meltilux scintillant wax was applied to the dried filter mats and the mats were counted in a scintillation counter to determine inhibition of [^3H]-R5020 binding. Data are expressed as IC50 values, i.e., the concentration of compound that inhibits radioligand binding by 50%.

rabbits [2] = assay: McGinty test (progestational/agonist activity, McPhail score); type: in vivo; set-up: McPhail Index, McGinty Assay (Agonist): scale not given here; details: rabbit; for McPhail Index, McGinty Assay (Agonist): test compound alone
Excerpt: (§1) Results were scored according to McPhail (McPhail, J. Physiol., 83: 146 (1934)). These are standard procedures well-known to those skilled in the art. The results of these assays are shown in Tables 2 (agonist activity) and 3 (antagonist activity). […] Some compounds were extremely potent in this regard.

rabbits [3] = assay: Anti-McGinty test (antiprogestational/antagonist activity, test compound plus progesterone, McPhail score); type: in vivo; set-up: McPhail Index, Anti-McGinty Assay (Antagonist): scale not given here; details: rabbit; for McPhail Index, Anti-McGinty Assay (Antagonist): test compound plus progesterone; for Blocking the action of progesterone in the anti-McGinty assay: dose of only 0.3 μg
Excerpt: as §1

immature female rabbits = assay: Anti-estrogenic activity, uterine weight in estradiol-treated immature female rabbits; type: in vivo, rabbit; details: ± S.E., no estradiol 216.7±37.2 mg

Row | Compound | IC50 [1] [nM] | McPhail Index, McGinty Assay (Agonist) (rabbits [2]; dose 0.3 micrograms) | McPhail Index, McGinty Assay (Agonist) (rabbits [2]; dose 3 micrograms) | McPhail Index, McGinty Assay (Agonist) (rabbits [2]; dose 30 micrograms) | McPhail Index, Anti-McGinty Assay (Antagonist) (rabbits [3]; dose 0.3 micrograms) | McPhail Index, Anti-McGinty Assay (Antagonist) (rabbits [3]; dose 3 micrograms) | McPhail Index, Anti-McGinty Assay (Antagonist) (rabbits [3]; dose 30 micrograms) | Blocking the action of progesterone in the anti-McGinty assay (rabbits [3]) | Uterine weight (immature female rabbits; compound orally at 10 mg/day concurrently with 5 μg of estradiol per day) [mg] | Progestational (agonist) activity in the McGinty assay (rabbits [2]; at high doses) | Progestational (agonist) activity in the anti-McGinty assay (rabbits [3]; at the highest dose) | Uterine weight (immature female rabbits; estradiol alone, 5 μg per day) [mg]
1 | CC1CCC2(CCC3C4CCC5=CC(=O)CCC5=C4C(c4ccc(N(C)C)cc4)CC32C)N1O (stereo not drawn) [11β-[4-(N,N-Dimethylamino)phenyl]-1′-hydroxy-5′-methyl-spiro[estra-4,9-dien-17β,2′-pyrrolidine]-3-one] | 5.2 | 0 ± 0 | 0 ± 0 | 0 ± 0 | 2.1 ± 0.3 | 2.4 ± 0.4 | 0.7 ± 0.4 | – | – | – | – | –
2 | CN(C)c1ccc(C2CC3(C)C(CCC34CCCN4O)C3CCC4=CC(=O)CCC4=C23)cc1 (stereo not drawn) [11β-[4-(N,N-Dimethylamino)phenyl]-1′-hydroxy-spiro[estra4,9-dien-17β,2′-pyrrolidine]-3-one] | 3.5 | 0 ± 0 | 0 ± 0 | 0 ± 0 | 2.7 ± 0.0 | 2.3 ± 0.5 | 0.07 ± 0.07 | – | – | – | – | –
3 | CC#C[C@]1(NC=O)CC[C@H]2[C@@H]3CCC4=CC(=O)CCC4=C3[C@@H](c3ccc(N(C)C)cc3)C[C@@]21C [11β-[4-(N,N-Dimethylamino)phenyl]-17β-(N-formamido)-17α-(1-propynyl)estra-4,9-dien-3-one] | 0.7 | 0 ± 0 | 0 ± 0 | 0 ± 0 | 0 ± 0 | 0 ± 0 | 0 ± 0 | completely effective in blocking the action of progesterone | 716 ± 96.6 | – | – | –
4 | CC#CC1(N(C)O)CCC2C3CCC4=CC(=O)CCC4=C3C(c3ccc(N(C)C)cc3)CC21C (stereo not drawn) [11β-[4-(N,N-Dimethylamino)phenyl]-17β-(N-hydroxy-N-methylamino)-17α-(1-propynyl)estra-4,9-dien-3-one] | 7.1 | 0 ± 0 | 0 ± 0 | 0 ± 0 | 2.0 ± 0.2 | 0 ± 0 | 0 ± 0 | – | – | – | – | –
5 | CC#C[C@]1(NO)CC[C@H]2[C@@H]3CCC4=CC(=O)CCC4=C3[C@@H](c3ccc(N(C)C)cc3)C[C@@]21C [11β-[4-(N,N-Dimethylamino)phenyl]-17β-(N-hydroxylamino)-17α-(1-propynyl)estra-4,9-dien-3-one] | 14.3 | 0 ± 0 | 0 ± 0 | 0.7 ± 0.0 | 0 ± 0 | 0 ± 0 | 2.5 ± 0.4 | completely effective in blocking the action of progesterone | – | some progestational (agonist) activity | some progestational (agonist) activity | –
6 | CC#CC1(NC(C)=O)CCC2C3CCC4=CC(=O)CCC4=C3C(c3ccc(N(C)C)cc3)CC21C (stereo not drawn) [17β-(N-Acetamido)-11β-[4-(N,N-dimethylamino)phenyl]-17α-(1-propynyl)estra-4,9-dien-3-one] | 1.3 | 0 ± 0 | 0 ± 0 | 0 ± 0 | 1.8 ± 0.3 | 0.1 ± 0.1 | 0 ± 0 | – | – | – | – | –
7 | CC#C[C@]1(N)CC[C@H]2[C@@H]3CCC4=CC(=O)CCC4=C3[C@@H](c3ccc(N(C)C)cc3)C[C@@]21C [17β-Amino-11β-[4-(N,N-dimethylamino)phenyl]-17α-(1-propynyl)estra-4,9-dien-3-one] | 8.3 | 0 ± 0 | 0 ± 0 | 0 ± 0 | 1.6 ± 0.3 | 0.2 ± 0.1 | 0 ± 0 | – | – | – | – | –
8 | C[C@]12CC[C@@H]3c4ccc(O)cc4CC[C@H]3[C@@H]1CC[C@@H]2O [estradiol, reference compound] | – | – | – | – | – | – | – | – | – | – | – | 1337 ± 105
